Bounds are passed on as bounds.

For assay [1], the system named is CCRF-CEM. The assay is described as follows: Compound was evaluated for its cytotoxicity against CEM cells. The assay is classed as functional, cell-based. The following applies: Homo sapiens.
Assay [2] has as its system Vero. In words: Compound was evaluated for its cytotoxicity against vero cells. Format: functional, cell-based. The settings on record: Chlorocebus sabaeus.
Assay [3] can be described thus: Compound was evaluated for its cytotoxicity against peripheral blood mononuclear (PBM) cells. Format: functional, cell-based. The following applies: Homo sapiens.
Assay [4] in a line: Compound was evaluated for its anti-HIV activity in vitro in peripheral blood mononuclear (PBM) cells. Format: functional. The following applies: Homo sapiens.
Assay [5] deals with CCRF-CEM. The assay is described as follows: Compound was evaluated for its cytotoxicity expressed as IC50 against CEM cells. The assay is classed as functional, cell-based. The following applies: Homo sapiens.

`OCC1C=CC(n2cnc3c(S)ncnc32)C1` (stereo unspecified): the IC50 in assay [1], in assay [2] and in assay [3] was greater than 100 µM each time. Moreover, in assay [4], the EC50 was greater than 100 µM.

Turning to `Nc1ncnc2c1ncn2C1C=CC(CO)C1` (stereo unspecified), the IC50 in assay [2], in assay [3] and in assay [5] was greater than 100 µM throughout. Moreover, the EC50 in assay [4] worked out at 2.4 µM. In assay [4], this compound registered an EC90 of 11.7 µM.

Take `Cc1cn([C@H]2C[C@H](N=[N+]=[N-])[C@@H](CO)O2)c(=O)[nH]c1=O` [ZIDOVUDINE]: the IC50 in assay [3] is greater than 100 µM. Moreover, in assay [4], a half-maximal effect (EC50) was put at 0.004 µM.
